Where two headings read alike, the source gives them in different places.
How the values were obtained:
Assay in all cases: Kinase profile (33P ATP filter binding)
Format in all cases: biochemical
NEK6 = NEK6 (Homo sapiens, UniProt Q9HC98); details: read-out: Remaining protein kinase activity
WNK1 = WNK1 (Homo sapiens, UniProt Q9H4A3)
HER4 = HER4 (Homo sapiens, UniProt Q15303); details: read-out: Remaining protein kinase activity
BTK = BTK (Homo sapiens, UniProt Q06187)
ASK1 = target: T1, ASK1 (Homo sapiens, UniProt Q99683); details: read-out: Remaining protein kinase activity
T1 sequence (Q99683 1-1374): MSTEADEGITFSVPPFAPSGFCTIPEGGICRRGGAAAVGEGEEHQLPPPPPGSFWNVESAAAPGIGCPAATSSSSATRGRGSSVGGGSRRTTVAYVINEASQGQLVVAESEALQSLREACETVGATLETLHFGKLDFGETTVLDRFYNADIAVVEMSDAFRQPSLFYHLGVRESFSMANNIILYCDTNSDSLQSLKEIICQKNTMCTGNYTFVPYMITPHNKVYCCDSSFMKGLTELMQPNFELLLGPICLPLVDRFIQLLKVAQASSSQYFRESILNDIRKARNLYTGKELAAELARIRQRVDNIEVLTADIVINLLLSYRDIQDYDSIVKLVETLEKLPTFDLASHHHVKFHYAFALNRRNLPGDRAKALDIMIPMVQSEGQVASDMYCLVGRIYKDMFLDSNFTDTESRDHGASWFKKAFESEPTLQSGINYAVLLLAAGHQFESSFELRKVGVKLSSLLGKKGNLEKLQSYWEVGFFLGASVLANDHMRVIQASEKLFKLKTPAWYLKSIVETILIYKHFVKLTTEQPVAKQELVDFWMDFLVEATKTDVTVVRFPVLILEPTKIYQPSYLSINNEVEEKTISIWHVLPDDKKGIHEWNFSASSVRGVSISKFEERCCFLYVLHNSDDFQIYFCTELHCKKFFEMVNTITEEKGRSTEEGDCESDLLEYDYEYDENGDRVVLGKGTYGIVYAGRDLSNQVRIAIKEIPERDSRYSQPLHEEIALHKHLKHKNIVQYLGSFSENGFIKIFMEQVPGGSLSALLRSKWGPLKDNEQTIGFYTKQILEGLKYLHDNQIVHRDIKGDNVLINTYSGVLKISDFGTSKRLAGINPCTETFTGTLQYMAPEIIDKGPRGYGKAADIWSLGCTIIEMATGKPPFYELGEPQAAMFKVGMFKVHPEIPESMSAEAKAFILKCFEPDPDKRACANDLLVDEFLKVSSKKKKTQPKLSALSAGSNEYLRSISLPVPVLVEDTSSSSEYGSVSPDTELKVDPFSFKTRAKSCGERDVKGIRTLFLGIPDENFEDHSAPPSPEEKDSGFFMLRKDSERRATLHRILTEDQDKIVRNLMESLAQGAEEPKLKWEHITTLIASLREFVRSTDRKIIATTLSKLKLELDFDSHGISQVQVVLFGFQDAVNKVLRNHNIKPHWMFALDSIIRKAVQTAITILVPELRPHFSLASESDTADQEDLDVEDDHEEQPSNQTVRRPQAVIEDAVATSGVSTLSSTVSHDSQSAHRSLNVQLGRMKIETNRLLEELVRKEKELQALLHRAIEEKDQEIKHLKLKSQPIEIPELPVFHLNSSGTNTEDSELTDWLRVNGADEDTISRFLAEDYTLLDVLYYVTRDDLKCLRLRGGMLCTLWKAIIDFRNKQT

IGF-1R = IGF-1R (Homo sapiens, UniProt P08069); details: read-out: Remaining protein kinase activity
Sequence of IGF-1R (P08069 31-1367): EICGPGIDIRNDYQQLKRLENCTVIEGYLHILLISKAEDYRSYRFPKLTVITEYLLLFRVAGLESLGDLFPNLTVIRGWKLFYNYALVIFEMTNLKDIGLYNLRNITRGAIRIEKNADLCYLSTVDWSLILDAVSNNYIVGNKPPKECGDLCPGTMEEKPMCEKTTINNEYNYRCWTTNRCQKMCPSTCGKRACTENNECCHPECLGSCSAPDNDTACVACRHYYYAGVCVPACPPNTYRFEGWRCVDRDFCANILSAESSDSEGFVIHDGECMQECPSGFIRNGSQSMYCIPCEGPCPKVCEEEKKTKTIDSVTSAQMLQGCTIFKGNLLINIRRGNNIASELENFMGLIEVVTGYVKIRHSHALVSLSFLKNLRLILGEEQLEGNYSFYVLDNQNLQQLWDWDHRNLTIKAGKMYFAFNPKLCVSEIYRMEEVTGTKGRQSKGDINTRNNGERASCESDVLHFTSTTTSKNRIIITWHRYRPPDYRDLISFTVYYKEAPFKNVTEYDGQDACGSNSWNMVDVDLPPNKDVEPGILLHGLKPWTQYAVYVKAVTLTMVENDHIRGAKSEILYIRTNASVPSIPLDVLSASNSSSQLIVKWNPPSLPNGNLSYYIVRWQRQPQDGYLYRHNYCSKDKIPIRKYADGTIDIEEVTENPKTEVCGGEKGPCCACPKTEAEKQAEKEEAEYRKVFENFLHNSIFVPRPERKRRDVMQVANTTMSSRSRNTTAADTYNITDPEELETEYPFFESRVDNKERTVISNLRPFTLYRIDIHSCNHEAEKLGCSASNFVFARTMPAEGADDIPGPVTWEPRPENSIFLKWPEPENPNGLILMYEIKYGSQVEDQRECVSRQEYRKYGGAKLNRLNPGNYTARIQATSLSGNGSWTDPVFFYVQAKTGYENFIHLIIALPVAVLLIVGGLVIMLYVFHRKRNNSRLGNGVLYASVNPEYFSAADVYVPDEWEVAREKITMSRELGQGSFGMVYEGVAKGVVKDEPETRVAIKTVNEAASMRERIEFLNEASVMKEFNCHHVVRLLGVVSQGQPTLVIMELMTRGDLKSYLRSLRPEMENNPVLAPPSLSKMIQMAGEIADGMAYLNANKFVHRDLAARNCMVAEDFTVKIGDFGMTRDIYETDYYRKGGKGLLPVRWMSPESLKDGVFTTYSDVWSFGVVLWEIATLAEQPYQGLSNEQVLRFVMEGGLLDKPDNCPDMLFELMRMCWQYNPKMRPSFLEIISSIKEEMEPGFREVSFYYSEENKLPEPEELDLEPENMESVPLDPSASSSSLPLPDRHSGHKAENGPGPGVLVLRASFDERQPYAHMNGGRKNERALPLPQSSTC

TBK1 = target: T2, TBK1 (Homo sapiens, UniProt Q9UHD2); details: read-out: Remaining protein kinase activity
T2 sequence (Q9UHD2 1-729): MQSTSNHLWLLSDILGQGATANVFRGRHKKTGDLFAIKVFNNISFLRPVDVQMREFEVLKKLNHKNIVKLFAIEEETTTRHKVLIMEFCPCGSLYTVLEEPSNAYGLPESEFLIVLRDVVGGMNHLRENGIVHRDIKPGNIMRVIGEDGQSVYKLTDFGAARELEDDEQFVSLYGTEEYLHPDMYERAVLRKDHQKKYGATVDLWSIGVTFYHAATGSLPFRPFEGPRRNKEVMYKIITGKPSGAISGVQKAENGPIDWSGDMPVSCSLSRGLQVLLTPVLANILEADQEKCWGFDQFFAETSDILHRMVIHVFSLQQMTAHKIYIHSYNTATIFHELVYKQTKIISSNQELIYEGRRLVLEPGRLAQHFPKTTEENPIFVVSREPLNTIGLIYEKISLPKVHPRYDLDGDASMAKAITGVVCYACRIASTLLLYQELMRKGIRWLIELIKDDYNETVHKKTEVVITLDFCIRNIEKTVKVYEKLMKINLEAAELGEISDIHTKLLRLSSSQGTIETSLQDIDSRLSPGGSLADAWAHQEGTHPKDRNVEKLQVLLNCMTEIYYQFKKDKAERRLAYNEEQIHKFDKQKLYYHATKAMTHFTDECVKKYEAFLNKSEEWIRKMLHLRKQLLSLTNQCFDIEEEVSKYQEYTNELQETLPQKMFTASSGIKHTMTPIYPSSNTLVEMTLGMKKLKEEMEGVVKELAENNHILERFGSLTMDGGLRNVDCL

Sequence of WNK1 (Q9H4A3 whole entry): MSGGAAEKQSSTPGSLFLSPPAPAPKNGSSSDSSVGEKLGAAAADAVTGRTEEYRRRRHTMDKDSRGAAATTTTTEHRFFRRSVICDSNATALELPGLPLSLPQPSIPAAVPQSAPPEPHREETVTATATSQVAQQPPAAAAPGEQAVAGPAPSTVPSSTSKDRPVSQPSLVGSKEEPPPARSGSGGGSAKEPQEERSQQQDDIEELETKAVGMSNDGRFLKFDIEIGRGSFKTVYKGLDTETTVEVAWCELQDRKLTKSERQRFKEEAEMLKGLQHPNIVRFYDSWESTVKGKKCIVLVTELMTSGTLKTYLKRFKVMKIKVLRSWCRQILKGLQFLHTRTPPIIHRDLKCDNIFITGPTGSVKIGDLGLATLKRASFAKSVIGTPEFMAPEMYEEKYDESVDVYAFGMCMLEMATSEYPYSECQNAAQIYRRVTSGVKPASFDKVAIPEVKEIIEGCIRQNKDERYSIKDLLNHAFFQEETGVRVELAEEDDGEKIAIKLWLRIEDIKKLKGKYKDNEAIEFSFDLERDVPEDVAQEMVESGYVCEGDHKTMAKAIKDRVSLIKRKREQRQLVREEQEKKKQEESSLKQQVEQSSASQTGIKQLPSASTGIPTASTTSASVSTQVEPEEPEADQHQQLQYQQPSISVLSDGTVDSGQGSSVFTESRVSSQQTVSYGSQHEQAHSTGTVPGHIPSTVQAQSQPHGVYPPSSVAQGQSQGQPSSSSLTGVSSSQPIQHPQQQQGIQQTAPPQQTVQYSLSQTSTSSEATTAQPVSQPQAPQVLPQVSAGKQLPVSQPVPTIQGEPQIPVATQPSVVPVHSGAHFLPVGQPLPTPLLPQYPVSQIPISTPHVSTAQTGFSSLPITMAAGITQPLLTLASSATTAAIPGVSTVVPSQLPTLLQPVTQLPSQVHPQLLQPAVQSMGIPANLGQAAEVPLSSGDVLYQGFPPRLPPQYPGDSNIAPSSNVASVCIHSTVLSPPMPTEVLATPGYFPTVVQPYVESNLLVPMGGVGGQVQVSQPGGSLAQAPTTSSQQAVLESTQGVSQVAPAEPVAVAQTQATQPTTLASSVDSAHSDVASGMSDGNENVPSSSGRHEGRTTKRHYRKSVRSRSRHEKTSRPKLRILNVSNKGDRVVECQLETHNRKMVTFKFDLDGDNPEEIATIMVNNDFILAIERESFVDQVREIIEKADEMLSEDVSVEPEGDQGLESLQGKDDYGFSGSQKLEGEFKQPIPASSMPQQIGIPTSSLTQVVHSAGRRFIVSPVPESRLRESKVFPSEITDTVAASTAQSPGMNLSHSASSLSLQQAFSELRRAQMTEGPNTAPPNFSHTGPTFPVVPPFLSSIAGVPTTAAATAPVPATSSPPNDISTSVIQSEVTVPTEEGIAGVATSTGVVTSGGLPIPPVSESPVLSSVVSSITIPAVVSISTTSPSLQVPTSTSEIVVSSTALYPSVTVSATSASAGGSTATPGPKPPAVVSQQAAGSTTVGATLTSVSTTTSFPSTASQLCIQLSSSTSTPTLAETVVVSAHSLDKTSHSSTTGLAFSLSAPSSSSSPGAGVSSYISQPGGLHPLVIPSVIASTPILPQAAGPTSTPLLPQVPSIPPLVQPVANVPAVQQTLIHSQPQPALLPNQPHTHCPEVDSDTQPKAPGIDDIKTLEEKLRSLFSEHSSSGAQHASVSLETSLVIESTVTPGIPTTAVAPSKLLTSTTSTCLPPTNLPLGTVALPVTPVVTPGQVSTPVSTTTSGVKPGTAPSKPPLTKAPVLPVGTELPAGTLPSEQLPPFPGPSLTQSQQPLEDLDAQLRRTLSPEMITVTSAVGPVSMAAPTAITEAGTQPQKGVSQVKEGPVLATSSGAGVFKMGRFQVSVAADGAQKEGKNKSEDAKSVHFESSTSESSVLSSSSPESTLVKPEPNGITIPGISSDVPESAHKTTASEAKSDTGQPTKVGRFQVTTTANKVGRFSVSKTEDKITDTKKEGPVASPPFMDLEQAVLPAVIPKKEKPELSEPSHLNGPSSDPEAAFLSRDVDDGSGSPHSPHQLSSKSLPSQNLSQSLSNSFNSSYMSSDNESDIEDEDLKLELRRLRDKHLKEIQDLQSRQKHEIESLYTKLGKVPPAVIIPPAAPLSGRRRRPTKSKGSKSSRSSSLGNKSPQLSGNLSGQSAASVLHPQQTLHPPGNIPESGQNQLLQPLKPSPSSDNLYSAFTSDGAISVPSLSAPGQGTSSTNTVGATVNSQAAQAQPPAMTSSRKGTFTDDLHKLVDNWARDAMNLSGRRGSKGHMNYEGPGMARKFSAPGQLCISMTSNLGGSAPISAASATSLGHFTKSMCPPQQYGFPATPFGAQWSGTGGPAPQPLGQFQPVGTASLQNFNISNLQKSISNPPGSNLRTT
Sequence of BTK (Q06187 whole entry): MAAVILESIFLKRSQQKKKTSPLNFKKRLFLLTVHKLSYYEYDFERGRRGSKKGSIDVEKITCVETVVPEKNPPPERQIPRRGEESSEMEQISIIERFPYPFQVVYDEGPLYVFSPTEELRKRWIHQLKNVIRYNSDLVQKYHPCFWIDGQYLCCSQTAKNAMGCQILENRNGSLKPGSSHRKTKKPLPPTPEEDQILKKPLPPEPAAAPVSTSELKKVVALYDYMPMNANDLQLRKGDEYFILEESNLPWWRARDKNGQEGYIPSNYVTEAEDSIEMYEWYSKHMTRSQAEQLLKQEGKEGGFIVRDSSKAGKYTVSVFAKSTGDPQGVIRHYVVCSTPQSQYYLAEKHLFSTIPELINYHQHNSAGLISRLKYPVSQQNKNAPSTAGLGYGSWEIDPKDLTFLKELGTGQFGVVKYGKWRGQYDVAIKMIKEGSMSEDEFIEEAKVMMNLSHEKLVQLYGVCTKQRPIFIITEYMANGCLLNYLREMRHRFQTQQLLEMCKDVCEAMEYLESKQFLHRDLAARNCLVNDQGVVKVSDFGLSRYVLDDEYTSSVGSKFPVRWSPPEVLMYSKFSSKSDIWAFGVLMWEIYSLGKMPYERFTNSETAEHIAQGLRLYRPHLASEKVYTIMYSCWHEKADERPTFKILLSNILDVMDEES
Sequence of NEK6 (Q9HC98 whole entry): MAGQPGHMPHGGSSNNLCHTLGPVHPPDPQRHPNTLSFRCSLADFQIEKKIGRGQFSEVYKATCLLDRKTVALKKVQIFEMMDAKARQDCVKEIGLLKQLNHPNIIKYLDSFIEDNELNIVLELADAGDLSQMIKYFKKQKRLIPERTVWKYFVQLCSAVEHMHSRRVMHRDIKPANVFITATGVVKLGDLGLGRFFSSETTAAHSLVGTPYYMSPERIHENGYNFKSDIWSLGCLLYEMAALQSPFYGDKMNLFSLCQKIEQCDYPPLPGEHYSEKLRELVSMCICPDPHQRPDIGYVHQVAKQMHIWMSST

COc1ccc2sc(-c3cncc(N)c3)nc2c1 [compound 1, 5-(5-Methoxybenzo[d]thiazol-2-yl)pyridin-3-amine] was tested, and the remaining activity at 1 µM (NEK6; NEK6, 1 μM) was 106%, the remaining activity at 100 µM (NEK6; NEK6, 100 μM) was 115% and the “Remaining protein kinase activity” value (WNK1; 1 μM) was 116%. For the same compound, the “Remaining protein kinase activity” value (WNK1; 100 μM) was 113%, the remaining activity at 1 µM (HER4; HER4, 1 μM) was 104% and the remaining activity at 100 µM (HER4; HER4, 100 μM) was 16%. For the same compound, the “Remaining protein kinase activity” value (BTK; 1 μM) was 101%, the “Remaining protein kinase activity” value (BTK; 100 μM) was 31% and the remaining activity at 1 µM (ASK1; ASK1, 1 μM) was 116%. It also gave a remaining activity at 100 µM (ASK1; ASK1, 100 μM) of 150%, a remaining activity at 1 µM (IGF-1R; IGF-1R, 1 μM) of 96% and a remaining activity at 100 µM (IGF-1R; IGF-1R, 100 μM) of 68%. For the same compound, the remaining activity at 1 µM (TBK1; TBK1, 1 μM) was 105% and the remaining activity at 100 µM (TBK1; TBK1, 100 μM) was 60%.

In the case of COc1ccc2sc(-c3cncc(NC(C)=O)c3)nc2c1 [PST-001, N-(5-(5-Methoxybenzo[d]thiazol-2-yl)pyridin-3-yl)acetamide], the remaining activity at 1 µM (NEK6) is reported as 112%, the remaining activity at 100 µM (NEK6) is reported as 113% and the “Remaining protein kinase activity” value (WNK1; 1 μM) is reported as 127%. For the same compound, the “Remaining protein kinase activity” value (WNK1; 100 μM) was 118%, the remaining activity at 1 µM (HER4) was 103% and the remaining activity at 100 µM (HER4) was 94%. The “Remaining protein kinase activity” value (BTK; 1 μM) was 92%, the “Remaining protein kinase activity” value (BTK; 100 μM) was 86% and the remaining activity at 1 µM (ASK1) was 114%. For the same compound, the remaining activity at 100 µM (ASK1) was 131%, the remaining activity at 1 µM (IGF-1R) was 104% and the remaining activity at 100 µM (IGF-1R) was 104%. The remaining activity at 1 µM (TBK1) was 119% and the remaining activity at 100 µM (TBK1) was 104%.

— PMC8617627, “Novel DYRK1A Inhibitor Rescues Learning and Memory Deficits in a Mouse Model of Down Syndrome” (Pharmaceuticals, 2021)
